Laboratory results from ChEMBL document CHEMBL1201862, “PubChem BioAssay data set” (2004).
Activity calls are given as the source filed them.

What was measured:
Insulin-degrading enzyme = target: T1, Insulin-degrading enzyme (Homo sapiens, UniProt P14735); test: Dose Response: Fluorescence polarization-based cell-based high throughput dose response assay for inhibitors of insulin-degrading enzyme (IDE). [Related pubchem assays: 434962 (Primary screen (IDE inhibitors in singlicate)), 449730 (Counterscreen (Cytotoxicity in triplicate)), 435028 (Confirmation (IDE inhibitors in triplicate)), 434984 (Summary …; type: functional
T1 sequence (P14735 whole entry): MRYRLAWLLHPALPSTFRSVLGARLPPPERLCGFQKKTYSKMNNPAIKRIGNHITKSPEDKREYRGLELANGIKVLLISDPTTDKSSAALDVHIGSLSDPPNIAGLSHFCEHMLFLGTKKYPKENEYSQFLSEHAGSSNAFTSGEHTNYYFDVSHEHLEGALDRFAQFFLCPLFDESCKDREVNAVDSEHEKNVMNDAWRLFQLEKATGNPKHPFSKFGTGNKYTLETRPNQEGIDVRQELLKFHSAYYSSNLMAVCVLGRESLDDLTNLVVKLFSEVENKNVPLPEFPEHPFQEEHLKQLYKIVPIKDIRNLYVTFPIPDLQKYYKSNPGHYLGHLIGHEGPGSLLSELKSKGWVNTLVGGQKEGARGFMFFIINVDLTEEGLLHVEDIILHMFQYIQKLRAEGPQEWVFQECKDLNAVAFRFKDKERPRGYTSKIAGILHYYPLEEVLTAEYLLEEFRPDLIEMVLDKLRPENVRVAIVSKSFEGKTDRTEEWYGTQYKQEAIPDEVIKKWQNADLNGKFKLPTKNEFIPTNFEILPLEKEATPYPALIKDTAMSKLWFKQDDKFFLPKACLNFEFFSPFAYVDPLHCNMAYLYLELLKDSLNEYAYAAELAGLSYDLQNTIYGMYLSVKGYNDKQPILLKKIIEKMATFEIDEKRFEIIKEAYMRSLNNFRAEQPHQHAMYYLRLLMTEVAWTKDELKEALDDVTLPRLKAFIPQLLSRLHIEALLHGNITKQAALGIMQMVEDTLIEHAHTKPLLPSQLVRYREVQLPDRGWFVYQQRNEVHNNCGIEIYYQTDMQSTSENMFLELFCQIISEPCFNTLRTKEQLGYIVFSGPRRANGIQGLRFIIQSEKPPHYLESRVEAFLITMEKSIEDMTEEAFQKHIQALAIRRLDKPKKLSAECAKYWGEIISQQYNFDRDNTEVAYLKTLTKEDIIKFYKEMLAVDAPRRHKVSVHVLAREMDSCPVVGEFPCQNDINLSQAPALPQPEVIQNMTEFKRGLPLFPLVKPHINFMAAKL

Large T antigen = Large T antigen (Simian virus 40, UniProt P03070); type: functional, Betapolyomavirus macacae;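 also: Confirmatory-stage PubChem screen for compounds that inhibit SV40 T antigen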
[1] = target: T2, Calpain-2 catalytic subunit (Sus scrofa, UniProt P43367); test: m-calpain protease blockers, concentration series – biochemical, fluorogenic peptide substrate, dose response (AID 1420); type: functional
T2 sequence (P43367 whole entry): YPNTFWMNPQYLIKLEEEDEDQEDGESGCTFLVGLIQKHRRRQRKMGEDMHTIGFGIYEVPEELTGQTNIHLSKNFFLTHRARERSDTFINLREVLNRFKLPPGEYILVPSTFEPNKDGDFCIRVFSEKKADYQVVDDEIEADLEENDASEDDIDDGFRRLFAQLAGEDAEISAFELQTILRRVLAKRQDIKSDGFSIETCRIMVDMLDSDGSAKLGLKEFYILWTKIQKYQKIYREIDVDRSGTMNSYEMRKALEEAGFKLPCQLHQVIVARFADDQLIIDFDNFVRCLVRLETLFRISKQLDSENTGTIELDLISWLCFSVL

[2] = target: T3, Histone-lysine N-methyltransferase NSD2 (Homo sapiens, UniProt O96028); type: biochemical
T3 sequence (O96028 whole entry): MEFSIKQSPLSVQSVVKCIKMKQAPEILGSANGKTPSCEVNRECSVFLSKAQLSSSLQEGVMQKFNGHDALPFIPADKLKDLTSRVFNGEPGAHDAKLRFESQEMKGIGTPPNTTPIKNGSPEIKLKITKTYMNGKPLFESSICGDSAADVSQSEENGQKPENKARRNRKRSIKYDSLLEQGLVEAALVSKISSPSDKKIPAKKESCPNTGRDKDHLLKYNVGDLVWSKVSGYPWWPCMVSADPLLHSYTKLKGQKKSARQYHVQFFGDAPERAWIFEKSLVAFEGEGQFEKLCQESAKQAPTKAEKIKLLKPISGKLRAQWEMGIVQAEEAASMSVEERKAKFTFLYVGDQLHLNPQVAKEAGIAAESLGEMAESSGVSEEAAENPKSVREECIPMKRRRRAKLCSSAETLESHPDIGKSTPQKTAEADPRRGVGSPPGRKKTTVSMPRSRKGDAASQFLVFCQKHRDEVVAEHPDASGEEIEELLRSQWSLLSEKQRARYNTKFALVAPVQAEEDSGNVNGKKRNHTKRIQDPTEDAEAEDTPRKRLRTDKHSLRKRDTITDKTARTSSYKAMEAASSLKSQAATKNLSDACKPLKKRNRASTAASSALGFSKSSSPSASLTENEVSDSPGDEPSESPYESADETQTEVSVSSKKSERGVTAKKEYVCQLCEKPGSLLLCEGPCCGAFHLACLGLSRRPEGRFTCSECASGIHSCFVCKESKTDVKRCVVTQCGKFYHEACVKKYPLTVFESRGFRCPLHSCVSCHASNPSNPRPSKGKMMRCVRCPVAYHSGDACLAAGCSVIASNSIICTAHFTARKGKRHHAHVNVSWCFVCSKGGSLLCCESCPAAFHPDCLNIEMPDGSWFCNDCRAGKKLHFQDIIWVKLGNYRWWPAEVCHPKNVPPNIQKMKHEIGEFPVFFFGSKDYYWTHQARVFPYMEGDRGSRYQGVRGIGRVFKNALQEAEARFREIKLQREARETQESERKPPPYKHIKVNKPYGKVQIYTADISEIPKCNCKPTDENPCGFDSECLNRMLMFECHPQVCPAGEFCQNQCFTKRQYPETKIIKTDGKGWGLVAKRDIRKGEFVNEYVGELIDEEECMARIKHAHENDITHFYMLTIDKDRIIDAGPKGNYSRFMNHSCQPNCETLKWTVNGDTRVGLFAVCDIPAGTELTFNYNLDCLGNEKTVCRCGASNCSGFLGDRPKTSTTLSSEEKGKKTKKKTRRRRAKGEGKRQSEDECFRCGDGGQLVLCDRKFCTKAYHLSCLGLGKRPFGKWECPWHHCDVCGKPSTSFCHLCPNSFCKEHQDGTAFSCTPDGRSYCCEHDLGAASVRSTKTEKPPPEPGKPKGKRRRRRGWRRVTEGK

[3] = Counterscreen for IDE inhibitors: Luminescence-based cell-based high throughput dose response assay to identify compounds that are cytotoxic to HEK cells. [Related pubchem assays: 434962 (Primary screen (IDE inhibitors in singlicate)), 449730 (Counterscreen (Cytotoxicity in triplicate)), 435028 (Confirmation (IDE inhibitors in triplicate)) …; type: functional; conditions: HEK293
[4] = HEK-293T viability loss after treatment – luminescence, T-cell screen hits, cytotoxicity control for TCR NF-kB inhibitor project, dose response (AID 489026); type: functional, cell-based;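 also: cells exposed to compound about 14 hours before the viability readout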
[5] = luciferase reporter signal suppression in cells – H4 neuroglioma cells, luminescence, dose response (AID 1990); type: functional, cell-based
[6] = Luminescence Cell-Based Dose Response HTS to Identify Inhibitors of 5'UTR Stem-Loop Driven Prion Protein mRNA Translation in H4 Neuroglioblastoma Cells. [Related pubchem assays: 1827 (Project Summary), 1813 (Primary HTS)]; type: functional
[7] = alpha-synuclein stem-loop luciferase translation blockers – H4 neuroglioma cells, luminescence, confirmation (AID 1988); type: functional, cell-based
[8] = luciferase reporter signal reduction – luminescence, H4-C neuroglioblastoma cells, dose response (AID 2458); type: functional, cell-based;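 also: H4 neuroglioblastoma cells stably carrying a luciferase reporter gene fusion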
cells = type: functional, cell-based
[9] = alpha-synuclein stem-loop translation blockers – luminescence, H4 neuroglioblastoma cells, dose confirmation, confirmation (AID 2454); type: functional, cell-based;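 also: H4 neuroglioblastoma cells carrying an alpha-synuclein 5'UTR luciferase reporter; potency for inhibition of the luciferase signal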
[10] = target: T4, Eukaryotic translation initiation factor 2-alpha kinase 3 (Homo sapiens, UniProt Q9NZJ5); test: Dose response cell-based high-throughput screening assay to measure PERK inhibition. [Related pubchem assays: 1416 ]; type: functional
T4 sequence (Q9NZJ5 whole entry): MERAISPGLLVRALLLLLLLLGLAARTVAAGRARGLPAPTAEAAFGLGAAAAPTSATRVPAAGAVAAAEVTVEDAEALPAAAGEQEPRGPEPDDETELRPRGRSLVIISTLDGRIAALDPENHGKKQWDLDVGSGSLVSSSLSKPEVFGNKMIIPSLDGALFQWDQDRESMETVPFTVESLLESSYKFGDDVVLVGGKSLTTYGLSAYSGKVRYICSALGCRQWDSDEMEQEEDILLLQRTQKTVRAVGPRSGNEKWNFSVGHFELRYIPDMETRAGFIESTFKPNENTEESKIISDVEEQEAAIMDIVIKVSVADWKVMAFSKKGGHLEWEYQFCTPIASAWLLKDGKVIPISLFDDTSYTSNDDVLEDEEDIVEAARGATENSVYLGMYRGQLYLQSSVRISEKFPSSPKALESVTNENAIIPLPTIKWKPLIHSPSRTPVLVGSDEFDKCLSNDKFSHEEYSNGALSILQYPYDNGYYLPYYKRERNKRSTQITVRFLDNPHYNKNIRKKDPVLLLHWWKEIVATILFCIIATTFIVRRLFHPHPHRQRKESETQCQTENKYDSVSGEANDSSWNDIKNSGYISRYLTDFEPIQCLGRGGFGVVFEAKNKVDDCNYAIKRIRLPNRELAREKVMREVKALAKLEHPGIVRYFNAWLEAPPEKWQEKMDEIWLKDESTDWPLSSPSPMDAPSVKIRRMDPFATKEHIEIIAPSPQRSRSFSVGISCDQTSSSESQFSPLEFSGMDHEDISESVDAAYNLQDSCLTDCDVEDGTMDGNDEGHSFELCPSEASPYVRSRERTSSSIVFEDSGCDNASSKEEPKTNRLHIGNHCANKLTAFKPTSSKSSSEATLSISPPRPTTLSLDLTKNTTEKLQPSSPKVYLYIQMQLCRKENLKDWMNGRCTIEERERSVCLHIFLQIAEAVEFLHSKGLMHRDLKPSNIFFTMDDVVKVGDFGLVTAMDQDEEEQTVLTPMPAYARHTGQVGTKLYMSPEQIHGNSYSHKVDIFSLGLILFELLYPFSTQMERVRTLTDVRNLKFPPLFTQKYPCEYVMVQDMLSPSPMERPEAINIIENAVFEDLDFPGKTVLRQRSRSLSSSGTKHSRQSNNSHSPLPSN

[11] = target: T4, Eukaryotic translation initiation factor 2-alpha kinase 3; test: Counterscreen assay for PERK inhibitors: Dose response cell-based high throughput screening assay to measure inhibition of PERK at 6 hours. [Related pubchem assays: 1522, 1416 ]; type: functional
[12] = target: Lysosomal acid glucosylceramidase (Homo sapiens, UniProt P04062); test: Dose response cell-based high throughput screening assay to identify enhancers of beta-glucosidase activity. [Related pubchem assays: 784 ]; type: functional
Procathepsin L = Procathepsin L (Homo sapiens, UniProt P07711)
Aspartyl aminopeptidase = target: T5, Aspartyl aminopeptidase (Plasmodium falciparum 3D7, UniProt Q8I2J3)
T5 sequence (Q8I2J3 whole entry): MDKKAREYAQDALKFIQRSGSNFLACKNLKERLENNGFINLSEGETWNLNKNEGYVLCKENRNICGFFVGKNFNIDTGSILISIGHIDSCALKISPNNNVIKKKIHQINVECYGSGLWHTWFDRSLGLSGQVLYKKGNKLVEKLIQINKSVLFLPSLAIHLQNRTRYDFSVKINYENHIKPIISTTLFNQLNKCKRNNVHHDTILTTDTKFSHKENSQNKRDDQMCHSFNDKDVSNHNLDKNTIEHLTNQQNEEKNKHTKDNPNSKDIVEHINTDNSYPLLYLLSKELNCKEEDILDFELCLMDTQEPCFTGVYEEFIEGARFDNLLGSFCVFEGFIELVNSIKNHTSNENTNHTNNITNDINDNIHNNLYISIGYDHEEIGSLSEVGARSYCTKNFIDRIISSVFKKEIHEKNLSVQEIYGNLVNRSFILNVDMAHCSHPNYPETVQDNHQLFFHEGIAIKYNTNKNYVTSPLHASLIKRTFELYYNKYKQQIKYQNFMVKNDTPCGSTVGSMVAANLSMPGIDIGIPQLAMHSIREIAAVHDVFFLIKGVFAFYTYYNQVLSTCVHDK

Cytochrome P450 2C9 = Cytochrome P450 2C9 (Homo sapiens, UniProt P11712); conditions: Potency
Sequence of Cytochrome P450 2C9 (P11712 whole entry): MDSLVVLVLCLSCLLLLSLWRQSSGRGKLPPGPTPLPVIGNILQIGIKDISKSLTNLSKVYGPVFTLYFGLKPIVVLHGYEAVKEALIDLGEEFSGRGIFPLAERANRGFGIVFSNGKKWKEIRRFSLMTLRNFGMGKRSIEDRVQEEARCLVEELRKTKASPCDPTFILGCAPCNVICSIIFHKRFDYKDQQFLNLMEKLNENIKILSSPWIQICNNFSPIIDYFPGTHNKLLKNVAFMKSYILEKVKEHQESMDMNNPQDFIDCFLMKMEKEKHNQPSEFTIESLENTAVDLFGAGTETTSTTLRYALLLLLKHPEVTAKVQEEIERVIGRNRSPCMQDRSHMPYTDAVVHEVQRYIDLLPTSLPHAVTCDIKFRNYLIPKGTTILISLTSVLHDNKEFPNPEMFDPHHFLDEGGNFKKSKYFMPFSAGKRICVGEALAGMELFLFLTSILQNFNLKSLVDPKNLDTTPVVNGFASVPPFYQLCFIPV

Sequence of Procathepsin L (P07711 whole entry): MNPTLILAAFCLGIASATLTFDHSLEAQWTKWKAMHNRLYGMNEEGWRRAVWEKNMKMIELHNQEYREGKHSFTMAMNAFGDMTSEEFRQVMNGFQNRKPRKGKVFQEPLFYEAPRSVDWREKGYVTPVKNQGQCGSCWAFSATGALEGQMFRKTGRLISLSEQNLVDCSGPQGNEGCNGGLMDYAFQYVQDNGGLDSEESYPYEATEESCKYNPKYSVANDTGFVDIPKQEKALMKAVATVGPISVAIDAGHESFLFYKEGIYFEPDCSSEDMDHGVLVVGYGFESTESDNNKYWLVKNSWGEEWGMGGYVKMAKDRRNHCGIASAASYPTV
Sequence of Lysosomal acid glucosylceramidase (P04062 whole entry): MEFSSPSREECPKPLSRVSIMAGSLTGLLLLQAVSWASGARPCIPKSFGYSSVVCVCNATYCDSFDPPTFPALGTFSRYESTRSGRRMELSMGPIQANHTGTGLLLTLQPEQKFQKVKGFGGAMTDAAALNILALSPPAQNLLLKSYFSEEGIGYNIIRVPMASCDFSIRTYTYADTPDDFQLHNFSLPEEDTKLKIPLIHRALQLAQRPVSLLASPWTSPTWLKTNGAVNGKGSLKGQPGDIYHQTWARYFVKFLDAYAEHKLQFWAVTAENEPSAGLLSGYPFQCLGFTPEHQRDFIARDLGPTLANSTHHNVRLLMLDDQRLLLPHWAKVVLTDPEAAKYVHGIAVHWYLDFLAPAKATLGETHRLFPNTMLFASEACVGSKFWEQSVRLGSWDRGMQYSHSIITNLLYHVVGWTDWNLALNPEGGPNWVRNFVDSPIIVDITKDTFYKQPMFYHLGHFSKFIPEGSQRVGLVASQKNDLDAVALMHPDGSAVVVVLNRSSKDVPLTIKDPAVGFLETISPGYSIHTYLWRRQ
Sequence of Large T antigen (P03070 whole entry): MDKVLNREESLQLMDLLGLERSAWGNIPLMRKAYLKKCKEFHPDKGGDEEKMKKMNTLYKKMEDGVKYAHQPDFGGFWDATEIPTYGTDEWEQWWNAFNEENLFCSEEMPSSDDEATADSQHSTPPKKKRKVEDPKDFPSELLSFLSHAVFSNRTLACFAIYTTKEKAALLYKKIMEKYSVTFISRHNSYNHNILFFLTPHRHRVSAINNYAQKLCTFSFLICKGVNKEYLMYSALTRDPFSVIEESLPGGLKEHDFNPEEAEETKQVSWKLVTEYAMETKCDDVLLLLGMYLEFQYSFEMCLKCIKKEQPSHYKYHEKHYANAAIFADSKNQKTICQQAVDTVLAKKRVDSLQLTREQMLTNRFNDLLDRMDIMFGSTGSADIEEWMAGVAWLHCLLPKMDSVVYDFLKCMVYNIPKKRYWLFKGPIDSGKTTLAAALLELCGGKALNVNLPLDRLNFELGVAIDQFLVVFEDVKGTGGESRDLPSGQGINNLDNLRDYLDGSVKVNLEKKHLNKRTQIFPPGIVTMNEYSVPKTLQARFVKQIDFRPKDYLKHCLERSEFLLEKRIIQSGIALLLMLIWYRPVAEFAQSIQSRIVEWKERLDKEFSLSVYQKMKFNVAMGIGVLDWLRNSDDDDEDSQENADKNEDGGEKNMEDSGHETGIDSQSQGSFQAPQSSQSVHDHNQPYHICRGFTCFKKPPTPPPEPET

In the case of `CN1CCC/C1=C/C=C1\SC(=S)NC1=O`, the IC50 (Insulin-degrading enzyme) is reported as 8.16 µM (active), the IC50 (Large T antigen) is reported as 30.2 µM (active) and the IC50 [1] is reported as 13.4 µM (not active). For the same compound, the AC50 [2] was > 20 µM (inactive) and the IC50 [3] was > 55.6 µM (not active).

With `CC1=C([N+](=O)[O-])C(c2ccccc2)C2=C(O)c3ccccc3C2=N1` (configuration not stated) the IC50 [4] was 58.8 µM (inactive), the EC50 [5] was 7.36 µM (active) and the EC50 [6] was 4.95 µM (active). The EC50 [7] was < 0.1 µM (active), the EC50 [8] was > 12 µM (not active) and the EC50 (cells) was > 12 µM (not active). The EC50 [9] was 4.09 µM (active).

For `Cc1ccc2cc(/C=N/Nc3nc4ccccc4[nH]3)c(Cl)nc2c1`, the EC50 [10] was > 55.7 µM (not active) and the EC50 [11] was > 55.7 µM (not active).

For `CCOC(=O)N1CCN(C(=O)c2ccc3c(=O)n(Cc4ccccc4)c(=S)[nH]c3c2)CC1`, the EC50 [12] was > 10 µM (not active).

In the case of `COC(=O)CN(n1cnnc1)S(=O)(=O)c1ccccc1Cl`, the IC50 (Procathepsin L) is reported as > 59.6 µM (not active) and the IC50 (Aspartyl aminopeptidase) is reported as 0.381 µM (active).

In the case of `Cc1cccn2c(=O)c3cc(C(=O)NCCCn4ccnc4)n(C)c3nc12`, the EC50 [12] is reported as > 10 µM (not active).

In the case of `CC(C)C[C@@H](CC(=O)N[C@@H](CCCN)CC(=O)N[C@@H]1CCNC[C@H]1C(=O)N[C@H](CC(=O)N[C@@H](CCC(=O)O)CC(=O)O)Cc1c[nH]c2ccccc12)NC(=O)[C@@H]1CCCC[C@H]1N`, the AC50 (Cytochrome P450 2C9) is reported as 31.6 µM (inconclusive).

For `C=C(C)C(O)/C=C/c1ccc(C)cc1` (configuration not stated), the AC50 (Cytochrome P450 2C9) was 3.16 µM (inconclusive).

For `O=C1/C(=C/Nn2cnnc2)c2ccccc2C(=O)N1c1ccccc1`, the IC50 (Procathepsin L) was > 59.6 µM (not active) and the IC50 (Aspartyl aminopeptidase) was 1.86 µM (active).
